Experimental data from paper PMC9487510, “A Novel Oral GyrB/ParE Dual Binding Inhibitor Effective against Multidrug-Resistant Neisseria gonorrhoeae and Other High-Threat Pathogens” (Antimicrobial Agents and Chemotherapy, 2022).
Converted amounts (≈) assume the structure as drawn. “And” between values parts separate entries of the source, which are not always exact repeats. Equal entries are not always repeated. Where two headings read alike, the source gives them in different places.

Columns and labels:
[1] = system: MRSA; assay: MIC, in vitro susceptibility testing (CLSI); assay type: cell-based, Staphylococcus aureus
[2] = system: VISA; assay: MIC, in vitro susceptibility testing (CLSI); assay type: cell-based, Staphylococcus aureus
[3] = system: MRSE; assay: MIC, in vitro susceptibility testing (CLSI); assay type: cell-based, Staphylococcus epidermidis
[4] = system: C. difficile; assay: MIC, toxigenic C. difficile panel (CLSI); assay type: cell-based, Clostridioides difficile; conditions: for MIC: Clostridioides difficile
[5] = system: S. aureus VRSA, VRS-2; assay: Neutropenic murine thigh infection model; assay type: in vivo, mouse (ICR); conditions: 26 h after infection
[6] = system: C. difficile BAA-1805; assay: Hamster C. difficile colitis model; assay type: in vivo, Golden Syrian hamster
[7] = system: VRSA; conditions: cited from earlier work
[8] = system: E. coli; set-up: method as in PMID 28483959, PMID 31315953; conditions: cited from earlier work
[9] = system: S. aureus; conditions: organism not named in the sentence (context MRSA/S. aureus); cited from earlier work
[10] = system: N. gonorrhoeae; conditions: QC strain ATCC 49926; cited from earlier work
[11] = Kinetic aqueous solubility; assay type: physicochemical
[12] = Liver microsome stability, mouse; assay type: in vitro ADME; conditions: male, CD-1, mouse, liver microsomes, pH 7.4
Procedure: Liver microsome stability assays were performed by BioDuro Inc. Human and mouse (CD-1 male) liver microsomes were used. […] Next, 50 μL of reaction buffer was added to solution and mixed via pipetting up and down 6 times. At each time point of 0, 30, and 60 min, an aliquot of 20 μL was removed from each tube. Liver microsomes (LM) working solution was prepared in 0.05 M phosphate reaction buffer (pH = 7.4) to a final concentration of 1.27 mg/mL. NADPH solution was prepared in 0.05 M phosphate buffer to afford a 5 mM buffer solution. […] After vortexing and incubating for 5 min (37°C), 50 μL of NADPH solution was added and mixed via pipetting. At each time point of 0, 5, 15, 30, and 60 min, an aliquot of 20 μL was removed from each tube. Next, 250 μL of quenching solution was aliquoted to quench the reaction, which was then vortexed for 1 min and placed on ice for 40 min. After centrifugation at 4,000 × g for 15 min, 100 μL of supernatant was transferred using a multichannel pipette to 0.65-mL tubes. Samples were diluted with MeOH: H2O (1:1) as necessary. Samples were analyzed by high-pressure liquid chromatography coupled to tandem mass spectrometry (LC/MS/MS) performed on a Sciex Applied Biosystems Qtrap 4000 triple-quadrupole mass spectrometer coupled to a Shimadzu HPLC system to quantify the remaining compound. Data were processed using Analyst software (version 1.4.2; Applied Biosystems Sciex). […] Metabolite identification on the microsomal extracts was performed using a Q-Exactive HRMS coupled with an Ultimate 3000 HPLC system and a Kinetix C18 2.1 × 50-mm 2.6-μm HPLC column.

[13] = Mouse pharmacokinetics of JSF-2659; assay type: in vivo; conditions: oral administration in mice; data not shown
[14] = system: Neisseria gonorrhoeae strain H041; assay: Estradiol-treated mouse model of cervico-vaginal infection, strain H041; assay type: in vivo, mouse (BALB/c); conditions: for percentage of mice colonized over 8 culture days after treatment: vs vehicle
[15] = system: N. gonorrhoeae (ATCC 700825); assay: Intravaginal infection model, ovariectomized BALB/c mice, strain ATCC 700825; assay type: in vivo, mouse (BALB/c); conditions: for killing effect relative to the baseline group: 26, 76 and 170 h after infection; for killing effect (bacterial counts in vaginal lavage): 26 h postinfection

## CN[C@H](CC(C)C)C(=O)N[C@H]1C(=O)N[C@@H](CC(N)=O)C(=O)N[C@H]2C(=O)N[C@H]3C(=O)N[C@H](C(=O)N[C@H](C(=O)O)c4cc(O)cc(O)c4-c4cc3ccc4O)[C@H](O)c3ccc(c(Cl)c3)Oc3cc2cc(c3O[C@@H]2O[C@H](CO)[C@@H](O)[C@H](O)[C@H]2O[C@H]2C[C@](C)(N)[C@H](O)[C@H](C)O2)Oc2ccc(cc2Cl)[C@H]1O [Van, vancomycin]
[1]
  MIC: 1.0 µg/mL (≈ 0.69 µM)
  MIC range: 0.5 to 1 µg/mL
[1]; Staphylococcus aureus, MRSA
  MIC: 0.5 µg/mL (≈ 0.345 µM)
[2]
  MIC range: 3.125 to 12.5 µg/mL
[3]
  MIC range: 0.5 to 1 µg/mL
[3]; Staphylococcus epidermidis, MRSE
  MIC: 0.5 µg/mL (≈ 0.345 µM)
[4]
  MIC range: 0.5 to 1 µg/mL
  MIC: 1 µg/mL (≈ 0.69 µM)
[4]; BAA1805
  MIC: 0.5 µg/mL (≈ 0.345 µM)
[4]; BAA1808
  MIC: 0.5 µg/mL (≈ 0.345 µM)
[4]; BAA1874
  MIC: 0.5 µg/mL (≈ 0.345 µM)
[4]; BAA1875
  MIC: 0.5 µg/mL (≈ 0.345 µM)
[5]; SC 100 mg/kg TID
  bacterial count reduction in thigh: 2.09 log10
[6]; 20 mg/kg PO BID for 5 days
  survival: 100%
[7]
  MIC: > 64 µg/mL

## O=c1ccc2ncc(=O)n3c2n1C[C@H]3CN1CCC(NCc2cc3c(cn2)OCCC3)CC1 [Gepotidacin]
[8]
  MIC: 4 µg/mL (≈ 8.92 µM)
[9]
  MIC90: 0.5 µg/mL (≈ 1.11 µM)
[10]
  modal MIC: 0.5 µg/mL

## C[C@@H]1CN2c3c(cc4c(N5C(=O)OC[C@@H]5C)noc4c3F)CC3(C(=O)NC(=O)NC3=O)[C@H]2[C@H](C)O1 [zoliflodacin]
[8]
  MIC: 4 µg/mL (≈ 8.21 µM)

## CNc1cc(F)cc2c1[nH]c1nc(Oc3cnc(C)nc3)nc(N3CCC4(CC3)CO[C@@H](COP(=O)(O)O)C4)c12 [JSF-2659]
[11]; JSF-2659 vs JSF-2414
  increase of solubility over the parent drug candidate: 764 fold
[11]; aqueous medium (not further specified)
  solubility kinetic: 440 µM (≈ 252 µg/mL)
[12]; read-out: MLM Clint
  microsomal CLint at 1 μM: 0.5 µL/min/mg
[12]; read-out: MLM t1/2
  half-life at 1 μM: 23.1 h
[13]
  conversion by host phosphatases to JSF-2414: > 99%
[14]; 75 mg/kg TID (q 6 h) PO
  percentage of mice colonized over 8 culture days after treatment: significant reduction in the percentage of mice colonized
[14]; 250 mg/kg QD PO
  percentage of mice colonized over 8 culture days after treatment: significant reduction in the percentage of mice colonized
[14]; 250 mg/kg TID (q 6 h) PO
  percentage of mice colonized over 8 culture days after treatment: significant reduction in the percentage of mice colonized
[14]; 250 mg/kg TID PO, vs vehicle (P = 0.058)
  average CFU/mL recovered after 48 h of treatment: significantly reduced compared to the vehicle control
[14]; 250 mg/kg TID PO, P = 0.004
  average CFU per mL of vaginal swab suspension over time: significantly different than the vehicle control group
[15]; IM 75 mg/kg QD
  killing effect relative to the baseline group: > 3 log10
[15]; IM 250 mg/kg QD
  killing effect relative to the baseline group: > 3 log10
[15]; PO 75 mg/kg TID
  killing effect relative to the baseline group: > 3 log10
[15]; PO 250 mg/kg QD
  killing effect relative to the baseline group: > 3 log10
[15]; PO 250 mg/kg TID
  killing effect relative to the baseline group: > 3 log10
[15]; IM 75 mg/kg QD, relative to control
  killing effect (bacterial counts in vaginal lavage): 3.51 log10
[15]; IM 250 mg/kg QD, relative to control
  killing effect (bacterial counts in vaginal lavage): 3.39 log10
[15]; PO 75 mg/kg QD, relative to baseline group
  killing effect (bacterial counts in vaginal lavage): 1 log10
[15]; PO 75 mg/kg TID, relative to control
  killing effect (bacterial counts in vaginal lavage): 3.51 log10
[15]; PO 250 mg/kg QD, relative to control
  killing effect (bacterial counts in vaginal lavage): 3.51 log10
[15]; PO 250 mg/kg TID, relative to control
  killing effect (bacterial counts in vaginal lavage): 3.51 log10
[15]; dose-dependent oral administration
  reduction of burden to the limit of detection: ~ 4.5 log10
[5]; PO 100 mg/kg QD
  bacterial count reduction in thigh relative to vehicle control: 0.95 log10
[5]; PO 100 mg/kg TID
  bacterial count reduction in thigh relative to vehicle control: 4.84 log10
[5]; PO 250 mg/kg QD
  bacterial count reduction in thigh relative to vehicle control: 4.42 log10
[5]; PO 250 mg/kg TID, 250 mg/kg
  bacterial count reduction in thigh relative to vehicle control: 6.26 log10 and > 6.2 log10
[6]; 20 mg/kg PO BID for 5 days
  survival, 14-day observation: 100%
[6]; 100 mg/kg PO BID for 5 days
  survival, 14-day observation: 100%
[6]; 250 mg/kg PO BID for 5 days
  survival, 14-day observation: 100%
[6]; 20, 100 and 250 mg/kg PO BID, relative to the positive controls
  body weight change during the 14-day observation period: No significant loss of body weight
